Laboratory results reported in US7812022B2 (GlaxoSmithKline LLC, priority 2004, dated 2010).

What was measured:
[1] = target: T1, ErbB2 or EGFR; assay: ErbB family substrate phosphorylation enzyme assay (HTRF), Method A or Method B; format: biochemical; details: Method B: enzyme mix pre-incubated with compound 1 hour at 20° C., started with substrate mix
T1 construct: enzymes purified from a baculovirus expression system; Reagent production was conducted essentially as described in Brignola, P. S., et al, (2002) J. Biol. Chem. 277(2): 1576-1585
Summary of the method: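 Baculovirus-expressed EGFR or ErbB2 (0.8 or 10 nM in enzyme mix) phosphorylates biotinylated Peptide C with 20 µM ATP and 0.8 µM peptide (substrate-mix levels), MnCl2, pH 7.5. Reaction ran 90 min at 20 °C with EDTA stop and HTRF anti-phosphotyrosine read. Method A: enzyme added last; Method B: 1 h enzyme–compound preincubation.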

[2] = tested on: BT474 and HN5 tumor cell lines; assay: Celltiter Glo growth inhibition assay (cellular Method B); format: cell-based; details: Homo sapiens, BT-474, 72 h, 3 days, read-out: Activity (Method): growth inhibition IC50 class
Method: (§1) Human breast tumor cells (BT474) were cultured in RPMI, (Invitrogen, 22400) containing 10% fetal bovine serum (FBS). Human head and neck tumor cells (HN5) were cultured in low glucose DMEM (Invitrogen, 12320) containing 10% FBS. Human colon tumor cells (Colo205) were cultured in DMEM (Invitrogen, 10564) containing 10% FBS. All cell lines were maintained at 37° C. in a humidified 5% CO2, 95% air incubator. Cells were harvested using trypsin/EDTA, counted using a haemocytometer, and plated in 30 microliters of the appropriate media described above, at the following densities, in a half area, black-walled, 96-well tissue culture plate (Corning 3882): BT474 3,000 cells/well, HN5 500 cells/well and Colo205 cells, 3,000 cells/well. The next day, compounds were diluted in DMEM containing […] gentamicin, from 10 mM stock solutions in DMSO. 30 microliters/well of these dilutions were added to the 30 microliters/well of media currently on the cell plates. Medium containing 0.6% DMSO was added to control wells. The final concentration of DMSO in all wells was 0.3%. Cells were incubated at 37° C., 5% CO2 for 3 days. Cell biomass was estimated using Celltiter Glo (Promega G7571). Briefly, plates were removed from the incubator and allowed to equilibrate to rt for 30 minutes. 60 microliters of Celltiter Glo reagent were added to each well of the treated cells and plates were shaken on an orbital plate shaker for 2 min. Plates were incubated without shaking for 30 more min and read in a luminometer with an integration time of 0.5 seconds per well. Percent inhibition of cell growth was calculated relative to vehicle treated control wells. Concentration of compound that inhibits 50% of vehicle control cell growth (IC50) was interpolated using nonlinear regression (Levenberg-Marquardt) and the equation, y=Vmax*(1−(x/(K+x)))+Y2, where “K” was equal to the IC50.

[3] = tested on: Colo205 tumor cell lines; assay: Celltiter Glo growth inhibition assay (cellular Method B), Colo205; format: cell-based; details: Homo sapiens, COLO 205, 72 h, 3 days, read-out: Activity (Method): growth inhibition IC50 class
Method: as §1

[4] = tested on: BT474 and HN5 tumor cell lines; assay: Methylene blue growth inhibition assay (cellular Method A); format: cell-based, Human; details: Homo sapiens, BT-474, 72 h, 3 days, read-out: Activity (Method): growth inhibition IC50 class
Summary of the method: (§2)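 Colo205, BT474 and HN5 cells in DMEM/10% FBS (BT474 10,000, HN5 3,000 cells/well) treated next day with compound in DMEM, 0.3% final DMSO, for 3 days at 37° C. Biomass stained with methylene blue, solubilized, read at OD 620; IC50 interpolated by nonlinear regression from % inhibition versus vehicle.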

[5] = tested on: Colo205 tumor cell lines; assay: Methylene blue growth inhibition assay (cellular Method A), Colo205; format: cell-based, Human; details: Homo sapiens, COLO 205, 72 h, 3 days, read-out: Activity (Method): growth inhibition IC50 class
Summary of the method: as §2

O=C(Nc1cccc(-c2nn3ccccc3c2-c2ccnc(Nc3cccc(F)c3)n2)c1)c1c(F)cccc1F [Example 115, 2,6-Difluoro-N-[3-(3-{2-[(3-fluorophenyl)amino]-4-pyrimidinyl}pyrazolo[1,5-a]pyridin-2-yl)phenyl]benzamide] was tested, and the “Activity (Method): pIC50 class against ErbB2 or EGFR” value (shortened to “Activity (Method): pIC50 class”) [1] was “++ (B) (at least one pIC50 measurement greater than 6 against either ErbB2 or EGFR but no measurement greater than pIC50 of 7)”, the IC50 [2] was < 100 nM and the IC50 [3] was > 1000 nM.
CN(C)CCOc1ccc(Nc2nccc(-c3c(-c4cccc(NC(=O)c5c(F)cccc5F)c4)nn4ccccc34)n2)cc1Cl [Example 128, N-[3-(3-{2-[(3-Chloro-4-{[2-(dimethylamino)ethyl]-oxy}phenyl)amino]-4-pyrimidinyl}pyrazolo[1,5-a]pyridin-2-yl)phenyl]-2,6-difluorobenzamide] was tested, and the “Activity (Method): pIC50 class” value [1] was “+++ (B) (at least one pIC50 measurement of greater than 7 against either ErbB2 or EGFR)”, the IC50 [2] was < 100 nM and the IC50 [3] was > 1000 nM.
For CS(=O)(=O)Cc1cccc(Nc2nccc(-c3c(-c4cccc(NC(=O)c5c(F)cccc5F)c4)nn4ccccc34)n2)c1 [Example 135, 2,6-Difluoro-N-(3-{3-[2-({3-[(methylsulfonyl)methyl]phenyl}amino)-4-pyrimidinyl]pyrazolo[1,5-a]pyridin-2-yl}phenyl)benzamide], the “Activity (Method): pIC50 class” value [1] was “+++ (B) (at least one pIC50 measurement of greater than 7 against either ErbB2 or EGFR)”, the IC50 [2] was < 100 nM and the IC50 [3] was > 1000 nM.
CS(=O)(=O)NCCOc1ccc(Nc2nccc(-c3c(-c4cccc(NC(=O)c5c(F)cccc5F)c4)nn4ccccc34)n2)cc1Cl [Example 163, N-{3-[3-(2-{[3-Chloro-4-({2-[(methylsulfonyl)amino]ethyl}-oxy)phenyl]amino}-4-pyrimidinyl)pyrazolo[1,5-a]pyridin-2-yl]phenyl}-2,6-difluorobenzamide] was tested, and the “Activity (Method): pIC50 class” value [1] was “+++ (B) (at least one pIC50 measurement of greater than 7 against either ErbB2 or EGFR)”, the IC50 [2] was < 100 nM and the IC50 [3] was < 100 nM.
For CN1CCN(CCCOc2ccc(Nc3nccc(-c4c(-c5cccc(NC(=O)c6c(F)cccc6F)c5)nn5ccccc45)n3)cc2Cl)CC1 [Example 164, N-[3-(3-{2-[(3-chloro-4-{[3-(4-methyl-1-piperazinyl)propyl]oxy}-phenyl)amino]-4-pyrimidinyl}pyrazolo[1,5-a]pyridin-2-yl)phenyl]-2,6-difluorobenzamide], the “Activity (Method): pIC50 class” value [1] was “+++ (B) (at least one pIC50 measurement of greater than 7 against either ErbB2 or EGFR)”, the IC50 [2] was < 100 nM and the IC50 [3] was > 1000 nM.
For COc1ccc(Nc2nccc(-c3c(-c4cccc(NC(=O)c5c(F)cccc5F)c4)nn4ccccc34)n2)cc1OCCCN(C)C.O=CO [Example 165, N-{3-[3-(2-{[3-{[3-(Dimethylamino)propyl]oxy}-4-(methyloxy)-phenyl]amino}-4-pyrimidinyl)pyrazolo[1,5-a]pyridin-2-yl]phenyl}-2,6-difluorobenzamide formic acid salt], the “Activity (Method): pIC50 class” value [1] was “+++ (B) (at least one pIC50 measurement of greater than 7 against either ErbB2 or EGFR)”, the IC50 [2] was < 100 nM and the IC50 [3] was > 1000 nM.
CN(C)CCOc1cccc(Nc2nccc(-c3c(-c4cccc(NC(=O)c5c(F)cccc5F)c4)nn4cccc(F)c34)n2)c1 [Example 168, N-[3-(3-{2-[(3-{[2-(Dimethylamino)ethyl]oxy}phenyl)amino]-4-pyrimidinyl}-4-fluoropyrazolo[1,5-a]pyridin-2-yl)phenyl]-2,6-difluorobenzamide] was tested, and the “Activity (Method): pIC50 class” value [1] was “+++ (B) (at least one pIC50 measurement of greater than 7 against either ErbB2 or EGFR)”, the IC50 [2] was < 100 nM and the IC50 [3] was > 1000 nM.
With CN1CCc2ccc(Nc3nccc(-c4c(-c5cccc(NC(=O)c6c(F)cccc6F)c5)nn5cccc(F)c45)n3)cc2C1 [Example 169, 2,6-Difluoro-N-[3-(4-fluoro-3-{2-[(2-methyl-1,2,3,4-tetrahydro-7-isoquinolinyl)amino]-4-pyrimidinyl}pyrazolo[1,5-a]pyridin-2-yl)phenyl]benzamide] the “Activity (Method): pIC50 class” value [1] was “+++ (B) (at least one pIC50 measurement of greater than 7 against either ErbB2 or EGFR)”, the IC50 [2] was < 100 nM and the IC50 [3] was > 1000 nM.
In the case of O=C(Nc1cccc(-c2nn3cccc(F)c3c2-c2ccnc(Nc3cccc(CN4CCCC4)c3)n2)c1)c1c(F)cccc1F [Example 170, 2,6-Difluoro-N-{3-[4-fluoro-3-(2-{[3-(1-pyrrolidinylmethyl)-phenyl]amino}-4-pyrimidinyl)pyrazolo[1,5-a]pyridin-2-yl]phenyl}benzamide], the “Activity (Method): pIC50 class” value [1] is reported as “+++ (B) (at least one pIC50 measurement of greater than 7 against either ErbB2 or EGFR)”, the IC50 [2] is reported as 100 to 1000 nM and the IC50 [3] is reported as > 1000 nM.
CN(C)CCOc1cccc(Nc2nccc(-c3c(-c4cccc(NC(=O)c5c(F)cccc5F)c4)nn4cc(F)ccc34)n2)c1 [Example 171, N-[3-(3-{2-[(3-{[2-(Dimethylamino)ethyl]oxy}phenyl)amino]-4-pyrimidinyl}-6-fluoropyrazolo[1,5-a]pyridin-2-yl)phenyl]-2,6-difluorobenzamide] was tested, and the “Activity (Method): pIC50 class” value [1] was “+++ (B) (at least one pIC50 measurement of greater than 7 against either ErbB2 or EGFR)”, the IC50 [2] was < 100 nM and the IC50 [3] was > 1000 nM.
O=C(Nc1cccc(-c2nn3cc(F)ccc3c2-c2ccnc(Nc3cccc(CN4CCCC4)c3)n2)c1)c1c(F)cccc1F [Example 172, 2,6-Difluoro-N-{3-[6-fluoro-3-(2-{[3-(1-pyrrolidinylmethyl)phenyl]amino}-4-pyrimidinyl)pyrazolo[1,5-a]pyridin-2-yl]phenyl}benzamide] was tested, and the “Activity (Method): pIC50 class” value [1] was “+++ (B) (at least one pIC50 measurement of greater than 7 against either ErbB2 or EGFR)”, the IC50 [2] was < 100 nM and the IC50 [3] was > 1000 nM.
With CN1CCc2ccc(Nc3nccc(-c4c(-c5cccc(NC(=O)c6c(F)cccc6F)c5)nn5cc(F)ccc45)n3)cc2C1 [Example 173, 2,6-Difluoro-N-[3-(6-fluoro-3-{2-[(2-methyl-1,2,3,4-tetrahydro-7-isoquinolinyl)amino]-4-pyrimidinyl}pyrazolo[1,5-a]pyridin-2-yl)phenyl]benzamide] the “Activity (Method): pIC50 class” value [1] was “+++ (B) (at least one pIC50 measurement of greater than 7 against either ErbB2 or EGFR)”, the IC50 [2] was < 100 nM and the IC50 [3] was > 1000 nM.
In the case of Cc1ncoc1-c1cccc(Nc2nccc(-c3c(-c4cccc(NC(=O)c5c(F)cccc5F)c4)nn4ccccc34)n2)c1 [Example 178, 2,6-Difluoro-N-{3-[3-(2-{[3-(4-methyl-1,3-oxazol-5-yl)phenyl]amino}-4-pyrimidinyl)pyrazolo[1,5-a]pyridin-2-yl]phenyl}benzamide], the “Activity (Method): pIC50 class” value [1] is reported as “+++ (B) (at least one pIC50 measurement of greater than 7 against either ErbB2 or EGFR)”, the IC50 [4] is reported as < 100 nM and the IC50 [3] is reported as 100 to 1000 nM.
For O=C1COc2cc(Nc3nccc(-c4c(-c5cccc(NC(=O)c6c(F)cccc6F)c5)nn5ccccc45)n3)ccc2N1 [Example 200, 2,6-Difluoro-N-[3-(3-{2-[(3-oxo-3,4-dihydro-2H-1,4-benzoxazin-7-yl)amino]-4-pyrimidinyl}pyrazolo[1,5-a]pyridin-2-yl)phenyl]benzamide], the “Activity (Method): pIC50 class” value [1] was “+++ (B) (at least one pIC50 measurement of greater than 7 against either ErbB2 or EGFR)”, the IC50 [4] was < 100 nM and the IC50 [5] was 100 to 1000 nM.
With COc1ccc(Nc2nccc(-c3c(-c4cccc(NC(=O)c5c(F)cccc5F)c4)nn4ccccc34)n2)cc1N1CCN(C)CC1 [Example 201, 2,6-Difluoro-N-{3-[3-(2-{[4-(methyloxy)-3-(4-methyl-1-piperazinyl)phenyl]amino}-4-pyrimidinyl)pyrazolo[1,5-a]pyridin-2-yl]phenyl}benzamide] the “Activity (Method): pIC50 class” value [1] was “+++ (B) (at least one pIC50 measurement of greater than 7 against either ErbB2 or EGFR)”, the IC50 [4] was < 100 nM and the IC50 [5] was 100 to 1000 nM.
